Data published in patent publication US20180200233A1, “COMPOSITIONS FOR PREVENTING CANCERS ASSOCIATED WITH HUMAN PAPILLOMA VIRUSES” (Loma Linda University, priority 2015, published 2018).

Experiments:
Type in all cases: cell-based, human
[1] = in vitro; settings: human
Protocol: (§1) FIGS. 3A-E are graphs providing data regarding resistance of HPV^+ SiHa cells to TRAIL-, cisplatin- and […] apoptosis, in the presence and absence of small molecules as disclosed herein. (FIG. 3A) HPV^+ SiHa cells are resistant to TRAIL-induced apoptosis as compared to the human osteosarcoma cell line U2OS. Cells (2×10^4 cells per well) were seeded into a 96-well plate, allowed to incubate overnight, and then treated with indicated concentration of TRAIL in the presence of cycloheximide (5 μg/ml). The viability of cells was measured after overnight incubation using the MTT assay; the viability of cells untreated with TRAIL was set at 100% for each group. (FIG. 3B) The indicated concentrations of three small molecules were added to SiHa cells, and an MTT assay was preformed after overnight incubation. The viability of cells untreated with small molecules was set as 100%. (FIG. 3C) The indicated concentrations of myricetin or spinacine were added 4 h prior to TRAIL (100 ng/ml) in the presence of cycloheximide (5 μg/ml) and incubated at 37° C. overnight. The viability of cells untreated with small molecules was set at 100%. (FIG. 3D and FIG. 3E) SiHa cells (2×10^4 cells per well) were seeded into a 96-well plate and allowed to incubate overnight. 100 μM of myricetin and 50 μM of spinacine were added 4 h prior to either (FIG. 3D) doxorubicin or (FIG. 3E) cisplatin. Cell viability was measured after overnight incubation using the MTT assay, and the viability of cells untreated with either myricetin or spinacine was set at 100%. Experiments were performed in triplicate, and error bars indicate the standard deviation.
(§2) The molecules were then tested to determine whether those that block E6/caspase 8 binding in vitro could also act in the context of a cell. SiHa cells are an HPV^+ cell line, derived from a cervical carcinoma, which serves as a commonly used model for HPV-associated malignancies. To determine whether HPV^+ SiHa cells are resistant to TRAIL-induced apoptosis, SiHa cells were treated with TRAIL and cell viability was assessed. TRAIL-sensitive, HPV^− U2OS cells served as a positive control. […] Myricetin and/or spinacine were tested to determine if they could sensitize these HPV^+ cells to TRAIL-induced apoptosis. […] Table 2 lists and compares the concentrations of the three tested compounds required to induce death in 50% of SiHa cells in the presence or absence of TRAIL.
The extracellular domain of human TRAIL was cloned into a pTriEx expression plasmid containing N-terminal Hisx6 tag. His-TRAIL was expressed in the E. coli BL-21 pLys strain and purified as previously described. Doxorubicin and cisplatin were purchased from Sigma. His-TRAIL, doxorubicin, and cisplatin were diluted in PBS to the desired concentration before using. To measure cell survival following treatment with TRAIL, cisplatin and doxorubicin, SiHa (2×10^4/well), C33A (1×10^4/well), and HNSCC cells (2×10^4/well) were seeded into 96-well plates and allowed to adhere overnight. Small molecules at the desired concentration were added and incubated at 37° C. for 4 h. As indicated, TRAIL, cisplatin or doxorubicin was then added. […] All experiments were repeated at least three times (three biological replicates, carried out on different days), with each experimental group measured in triplicate within each of these individual experiments. […]

[2] = system: SiHa cells; assay: MTT cell viability, SiHa cells, TRAIL-induced apoptosis; settings: for increase in cell death in the presence than in the absence of TRAIL: from the EC50 values of Table 2; for concentration required to inhibit binding and to sensitize cells: cell sensitization experiments
Protocol: as §1
FIGS. 5A-B are graphs showing myricetin and spinacine (5) re-sensitized HPV^+, but not HPV^−, cells to treatment with TRAIL. SiHa (2×10^4 cells per well) and C33A cells (1×10^4 cells per well) were seeded into a 96-well plate and allowed to incubate overnight, then cells were pre-treated in the presence or absence of myricetin (100 μM) (FIG. 5A) or spinacine (50 μM) (FIG. 5B) for 4 h. The indicated concentration of TRAIL, along with cycloheximide (5 μg/ml) was added and cells were allowed to incubate overnight. Cell viability was measured by MTT assay, and the viability of cells untreated with TRAIL was set at 100%. Experiments were performed in triplicate, and error bars indicate the standard deviation.
as §2
The extracellular domain of human TRAIL was cloned into a pTriEx expression plasmid containing N-terminal Hisx6 tag. His-TRAIL was expressed in the E. coli BL-21 pLys strain and purified as previously described. Doxorubicin and cisplatin were purchased from Sigma. His-TRAIL, doxorubicin, and cisplatin were diluted in PBS to the desired concentration before using. To measure cell survival following treatment with TRAIL, cisplatin and doxorubicin, SiHa (2×10^4/well), C33A (1×10^4/well), and HNSCC cells (2×10^4/well) were seeded into 96-well plates and allowed to adhere overnight. Small molecules at the desired concentration were added and incubated at 37° C. for 4 h. As indicated, TRAIL, cisplatin or doxorubicin was then added. […]

[3] = system: SiHa cells; assay: MTT cell viability, SiHa cells with doxorubicin or cisplatin; settings: 100 μM myricetin, 50 μM spinacine added 4 h prior; compared to negative control
Protocol: as §1, with “(FIG. 3C) The indicated concentrations of myricetin or spinacine were added 4 h prior to TRAIL (100 ng/ml) in the presence of cycloheximide (5 μg/ml) and incubated at 37° C. overnight. The viability of cells untreated with small molecules was set at 100%. (FIG. 3D and FIG. 3E) SiHa cells (2×10^4 cells per well) were seeded into a 96-well plate and allowed to incubate overnight. 100 μM of myricetin and 50 μM of spinacine were added 4 h prior to either (FIG. 3D) doxorubicin or (FIG. 3E) cisplatin.” left out, “Experiments were performed in triplicate, and error bars indicate the standard deviation.” left out
The extracellular domain of human TRAIL was cloned into a pTriEx expression plasmid containing N-terminal Hisx6 tag. […] All experiments were repeated at least three times (three biological replicates, carried out on different days), with each experimental group measured in triplicate within each of these individual experiments. […]

SMILES | EC50 [1] [µM] | EC50 for TRAIL-induced apoptosis ([2]; SiHa cells, compound added 4 h prior to TRAIL 100 ng/ml + cycloheximide 5 μg/ml, overnight, MTT) | sensitivity of SiHa cells to doxorubicin and cisplatin (in words) [3] | increase in cell death in the presence than in the absence of TRAIL ([2]; SiHa cells) [fold] | concentration required to inhibit binding and to sensitize cells [2] [µM] | sensitivity of SiHa cells to TRAIL after pre-treatment (in words) ([2]; 100 μM myricetin or 50 μM spinacine for 4 h, TRAIL up through 100 ng/ml)
OCn1cnc2ccccc21 [Compound 3, 1H-benzimidazole-1-methanol] | 285 | No sensitization |  |  |  | 
O=C(O)C1Cc2[nH]cnc2CN1 (centres unmarked) [Compound 5, 4,5,6,7-Tetrahydro-1H-imidazo(4,5-c)pyridine-6-carboxylic acid] | 268 |  | increased the sensitivity | 8.6 | 50 | 
O=c1c(O)c(-c2cc(O)c(O)c(O)c2)oc2cc(O)cc(O)c12 [Myricetin, reference compound] | 539 |  | increased the sensitivity | 3.5 | 100 | sensitivity increased dramatically
